One data set concerns Wistar rat. The data set is described as follows: Measurement of blood flow and blood pressure in rats (femoral flow), Wistar rat. It is filed as in vivo. How it is done: (§1) Wistar rats (Hsd Cpb:Wu) of a weight of 250-350 g or ZDF rats (ZDF/Crl-Lepr fa/fa) of a weight of 330-520 g were anesthetized using 2.5% isoflurane in an oxygen/laughing gas mixture (40:60). To determine the blood flow in the carotid artery and the femoral artery, the anesthetized rat was brought into a supine position, and the left carotid artery and the right femoral artery are then carefully exposed. Blood flow was measured by placing flow probes (Transonic Flowprobe) at the vessels. By introducing a PE50 artery catheter into the left femoral artery, blood pressure and heart rate were determined (Transducer Ref. 5203660: from Braun CH). The substances were administered as a bole injection or a continuous infusion via a venous catheter in the left femoral vein.
(§2) Following the preparation of the animals, there was a 5 min baseline interval. Infusion of the AR alpha2C receptor antagonist was then started. In the steady state (32 min after the start of the experiment), the femoral flow was determined in relation (% difference) to the initial flow.
(§3) At the same time, no changes in blood pressure and heart rate were measured. Placebo: 10% ethanol/40% PEG400/50% NaCl.

The test system of data set [1] is diabetic ZDF fa/fa animals. The data set is described as follows: Measurement of blood flow and blood pressure in rats (femoral flow), ZDF rat. It is filed as in vivo. The settings on record: for Change in the femoral flow in %: ZDF rat (n = 3), steady state 32 min, mean. How it is done:
as §1, §2, §3

In data set [2] the test system is diabetic (ZDFfa/fa) and healthy rats (Wistar). The experiment in a line: Assay of perfusion-enhancing substances (microcirculation), laser doppler at the paw. It is filed as in vivo, rat. The source says: In diabetic (ZDFfa/fa) and healthy rats (Wistar), a laser doppler probe was fastened under anaesthesia conditions (isoflurane anaesthesia) at the sole of the paw for measuring cutaneous microcirculation. The test animals were once treated orally with the test substances. During the experiment, microperfusion and temperature of the lower extremities were documented continuously. Here, a temperature-sensitive laser doppler probe (Periflux, O2C) was fastened with adhesive to the paws of the animals, allowing the measurement of microperfusion and skin temperature. The microcirculation measurement values were measured on both paws 30 min after oral administration of the test substance. […] Also stated is the MED for the significant increase of skin temperature (ttest).
Microcirculation data for adrenoreceptor α2C receptor antagonist of the compound of Example 8 and for the comparative substance ORM12741, an AR α2c receptor antagonist from Orion, are shown in Table 3: […]

Data set [3] concerns the target recombinant human α2C receptor (Homo sapiens (Human), UniProt P18825). The data set is described as follows: Antagonism against the adrenoreceptor α2C (luminescence, noradrenaline-stimulated CHO cells). It is filed as cell-based. The settings on record: noradrenaline 20 nM; CHO cell line with Gαqi3 and mtOb. How it is done:
Antagonism against the adrenoreceptor α1A was tested using a recombinant human α1A receptor CHO cell line which additionally also recombinantly expresses mtAeq (mitochondrial aequorin). Antagonism against the adrenoreceptor α2A was tested using a recombinant human α2A-Gα16 receptor fusion protein CHO cell line (PerkinElmer Life Sciences) which additionally also recombinantly expresses mtAeq. Antagonism against the adrenoreceptor α2B was tested using a recombinant human α2B receptor CHO cell line (PerkinElmer Life Sciences) which additionally also recombinantly expresses mtAeq. Antagonism against the adrenoreceptor α2C was tested using a recombinant human α2C receptor CHO cell line which additionally also recombinantly expresses a chimaric G protein (Gαqi3) and mtOb (mitochondrial obelin).
The cells were cultivated at 37° C. and 5% CO2 in Dulbecco's modified Eagle's Medium/NUT mix F12 with L-glutamine which additionally contains 10% (v/v) inactivated foetal calf serum, 1 mM sodium pyruvate, 0.9 mM sodium bicarbonate, 50 U/ml penicillin, 50 μg/ml streptomycin, 2.5 μg/ml amphotericin B and 1 mg/ml Geneticin. The cells were passaged with enzyme-free Hank's-based cell dissociation buffer. All cell culture reagents used were from Invitrogen (Carlsbad, USA).
Luminescence measurements were carried out on white 384-well microtitre plates. 2000 cells/well were plated in a volume of 25 μl and cultivated for one day at 30° C. and 5% CO2 in cell culture medium with coelenterazine (α2A and α2B: 5 μg/ml; α1a/c and α2C: 2.5 μg/ml). Serial dilutions of the test substances (10 μl) were added to the cells. After 5 minutes, noradrenaline was added to the cells (35 μl; final concentrations: 20 nM (α1a/c and α2C) or 200 nM (α2A and α2B)), and the emitted light was measured for 50 seconds using a CCD (charge-coupled device) camera (Hamamatsu Corporation, Shizuoka, Japan) in a light-tight box. The test substances were tested up to a maximum concentration of 10 μM. The IC50 values were calculated from the appropriate dose-response curves.

Data set [4] relates to conscious female Wistar rats. The experiment in a line: Radiotelemetric measurement of blood pressure and heart rate of conscious rats. It is filed as in vivo, rat. The source says: A commercially available telemetry system from Data Sciences International DSI, USA, was employed for the measurements on conscious rats described below. The system consists of 3 main components: (1) implantable transmitters (Physiotel® telemetry transmitter), (2) receivers (Physiotel® receiver), which are linked via a multiplexer (DSI Data Exchange Matrix) to a (3) data acquisition computer. The telemetry system makes it possible to continuously record blood pressure, heart rate and body motion of conscious animals in their usual habitat.
The studies were conducted on adult female Wistar rats with a body weight of >200 g. After transmitter implantation, the experimental animals were housed singly in type III Makrolon® cages. They had free access to standard feed and water. The day/night rhythm in the test laboratory was set by changing the illumination of the room.
The telemetry transmitters used (PA-C40, DSI) were surgically implanted under aseptic conditions in the experimental animals at least 14 days before the first experimental use.
For the implantation, the fasted animals were anaesthetized with isoflurane (IsoFlo®, Abbott, initiation 5%, maintenance 2%) and shaved and disinfected over a large area of their abdomens. […]
Each of the instrumented rats living in the system was assigned a separate receiving antenna (RPC-1 Receiver, DSI). […] The signals emitted were detected online by a data acquisition system (Dataquest™ A.R.T. for Windows, DSI) and processed accordingly.
In the standard procedure, the following were measured for 10-second periods in each case: (1) systolic blood pressure (SBP), (2) diastolic blood pressure (DBP), (3) mean arterial pressure (MAP) and (4) heart rate (HR) and (5) activity (ACT). These parameters were measured over 24 hours after administration.
The acquisition of measurements was repeated under computer control at 5-minute intervals. The source data obtained as absolute values were corrected in the diagram with the currently measured barometric pressure (Ambient Pressure Reference Monitor, APR-1, DSI). […]

The mark [5] stands for this setting: during infusion, up to 1 μg/kg/min.

Chain of recombinant human α2C receptor (P18825 whole entry, the tested form may be a part): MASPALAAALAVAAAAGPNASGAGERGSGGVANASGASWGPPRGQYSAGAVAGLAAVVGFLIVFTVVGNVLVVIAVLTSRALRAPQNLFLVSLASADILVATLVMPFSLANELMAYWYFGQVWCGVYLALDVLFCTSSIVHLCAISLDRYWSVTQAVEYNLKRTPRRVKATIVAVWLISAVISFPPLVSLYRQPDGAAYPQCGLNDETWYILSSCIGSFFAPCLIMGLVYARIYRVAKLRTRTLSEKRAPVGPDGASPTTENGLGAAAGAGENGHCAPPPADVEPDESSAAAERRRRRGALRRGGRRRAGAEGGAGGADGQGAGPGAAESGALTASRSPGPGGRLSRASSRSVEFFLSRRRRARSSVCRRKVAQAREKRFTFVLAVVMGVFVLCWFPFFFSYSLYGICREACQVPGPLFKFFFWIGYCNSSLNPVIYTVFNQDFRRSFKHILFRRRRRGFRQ

The IC50 is the concentration at which inhibition is half-maximal. `O=C(c1cnc(N2CC3(COC3)C2)nc1)N1CCC(N2CCc3ccccc3C2)CC1` [Example 8, [4-(3,4-Dihydroisoquinolin-2(1H)-yl)piperidin-1-yl][2-(2-oxa-6-azaspiro[3.3]hept-6-yl)pyrimidin-5-yl]methanone]: the “Change in the femoral flow in %” value in the data set on Wistar rat (Wistar rat (n = 7), 1 μg/kg/min infusion, steady state 32 min, mean) was −6.7 (n = 7) %; in data set [1] (0.1 μg/kg/min infusion), 12.3%; in data set [1] (0.3 μg/kg/min infusion) it was 65.0%; in data set [1] (1 μg/kg/min infusion), 131.3%. Further, the “femoral flow (in words)” value in the data set on Wistar rat (Wistar rat, up to a dose of 1 μg/kg/min) is “no increase in femoral flow”; in data set [1] (diabetic ZDF fa/fa animals, doses of 0.1, 0.3 and 1 μg/kg) it was “dose-dependent increase in femoral flow”. Besides, the “blood pressure (in words)” value in the data set on Wistar rat (setting [5]) is reported as “no changes”. In addition, the “heart rate (in words)” value in the data set with Wistar rat (setting [5]) was “no changes”. The “factor by which microcirculation is improved at the MED compared to placebo” value in data set [2] (single oral dose at MED, 30 min after administration) turned out to be 1.8 x. The MED microcirculation in data set [2] (single oral dose, measured 30 min after administration, significant vs placebo) was determined as 0.03 mg/kg. Besides, in data set [2] (single oral dose, significant increase of skin temperature (ttest)), the MED skin temperature is reported as 0.01 mg/kg. Moreover, the IC50 in data set [3] amounted to 23 nM. Besides, the heart rate result in data set [4] (oral 3 and 10 mg/kg) is “slight transient increase in the heart rate”. Moreover, the “haemodynamic effects (blood pressure, heart rate)” value in data set [4] (up to an oral dose of 1 mg/kg) is on record as “no haemodynamic effects”.

(Values after US10323020B2, “Substituted piperidinyl tetrahydroquinolines” (Bayer Pharma Aktiengesellschaft, priority 2013, dated 2019).)
